Experimental data reported in US20230310392A1, “COMPOSITIONS AND METHODS FOR THE TREATMENT OF EYE CONDITIONS” (Lenz Therapeutics, Inc., priority 2021, published 2023).
Several values for one entry are separate records, joined by “and”; a condition that tells them apart may be missing. Equal entries are not always repeated.

Columns and labels:
[1] = Stability of aceclidine in solution at 25° C. and 4° C. by HPLC (Example 6); format: physicochemical
Method: 20 samples of the above composition were divided evenly and stored at 25° C. and 4° C. Prior to storage, initial concentrations of aceclidine were measured using […] (“HPLC”). The amount of aceclidine in each solution was calculated by the area under the principal peak compared to a reference solution of aceclidine. Samples were then subject to storage for 3 months. Aceclidine measurements were taken at 1, 2 and 3 months.

[2] = tested on: emmetrope over the age of 45; assay: Miotic agent with or without tropicamide and carrier: near and distance vision of an emmetrope over the age of 45 (FIG. 2); format: in vivo, human
Source text: Subject is an emmetrope over the age of 45 with a baseline near vision of 20.100 and baseline distance vision of 20.20. […] […] A proper drug carrier can also have a beneficial effect.

[3] = tested on: presbyopic subjects; assay: Effect of aceclidine compositions on near and distance vision of presbyopic subjects aged 47 to 67 (Example 1); format: in vivo, human; conditions: for Effect: duration of effect; for Post Gtt 15″ L Post Dist: left eye distance vision; for Post Gtt 15″ L Post Near: left eye near vision; for Post Gtt 15″ R Post Dist: right eye distance vision; for Post Gtt 15″ R Post Near: right eye near vision
Method: As aceclidine is an […], the clinical effectiveness may vary with different ratios. For the present studies a nearly exact 50:50 ratio of stereoisomers was measured as best determined by polarimetry.
After administration of the composition all subjects experienced an improvement in their near vision that lasted from 7 to 12 hours.

[4] = tested on: presbyopic subject; assay: 1.75% aceclidine in saline, LogMAR visual acuity of a presbyopic subject (Example 13); format: in vivo, human
Method: A 1.75% aceclidine in saline solution was formulated. One drop was instilled into each eye of a presbyopic subject. The visual acuity of the subject was tested both before and after instillation using a LogMAR chart.

[5] = tested on: pupil; assay: Duration of miosis of muscarinic agonist with brimonidine (description); format: in vivo, human
Method: It is further observed that concentration of brimonidine above 0.15% w/v causes significant trigger of the alpha 1 receptor leading to ischemia and rebound redness, which neutralizes the benefit of the prolonged duration at concentrations from about 0.07% to about 0.15% w/v brimonidine.
Another surprising discovery of the present invention, is that when the pH of a composition comprising a muscarinic agonist and brimonidine is below about 6.0 the duration of miosis is prolonged up to 14 hours.
In a still further embodiment lower pH is virtually found to cause the formulation to remain on the ocular surface longer, and therefore provide more sustained microvessel constriction and reduced egress of active ingredients.

[6] = tested on: presbyopic patient; assay: Compositions containing little or no cycloplegic agent: reading vs baseline at 40 cm, duration, comfort, efficacy index (Example 7); format: in vivo, human; conditions: 1.75% aceclidine, 2.5% mannitol, 0.01% tropicamide, 5% polysorbate 80, no viscosity agent
Source text: Aceclidine alone causes incidence migraine-like severe ciliary spasm (brow ache) and myopic blur. These effects are inversely correlated to age with subjects age 40 reporting the highest incidence and subject age 60+ reporting the lowest incidence. The addition of a cycloplegic agent reduces ciliary spasms and attendant brow ache, migranious headache, squeezing pressure around eyes or other symptoms of ciliary spasms. […] The addition of 2.5% w/v mannitol however does reduce the myopic effect of aceclidine. Increasing the aceclidine concentration overcomes this reduction in myopic effect seen with the addition of mannitol. […] Even more surprising, the concentration of the cycloplegic agent can be reduced or even eliminated in the presence of mannitol without an increase in ciliary spasm. […]
Further and unexpectedly, the addition of a nonionic surfactant increases both the quantitative measure of near vision improvement and the duration. […]
In brief, the score is calculated by multiplying the lines of improvement in near visual acuity by the number of hours the improvement lasts. […]

[7] = tested on: subjects; assay: Modulation of aceclidine concentration in a preferred embodiment: stinging, redness, comfort, depth of focus (Example 2); format: in vivo, human
Method: Preferred embodiment: • Aceclidine 1.35% - 1.55% w/v; • Polyoxyl 40 stearate 5.5% w/v; • NaCl 0.037% w/v; • a viscosity agent, preferably CMC 0.80% w/v or an amount of Carbopol® 934 or 940 sufficient to achieve a viscosity of from about 5 to about 35 cps upon topical instillation, such as Carbopol® 940 at a concentration from about 0.09% to about 1.0% w/v; • BAK 0.015% w/v; and • a phosphate, citrate, citrophosphate, or acetate buffer from about 3 to about 10 mM, wherein the pH is from about 4.75 to about 6.0.
For 1.35% w/v aceclidine - • Stinging on topical instillation 0.25 / 4.0 (lasting about 2-5 seconds); • Induced redness at 10 minutes: 1.0 to 1.5/4.0; • Induced redness at 30 minutes: 0.0 to 0.25 / 4.0; • Comfort: very high. • Wetting: very high, the eye maintaining sensation of improved wetting for most of a 24-hour period after a single topical instillation. • Depth of Focus distance: excellent. • Depth of Focus near: excellent.
In testing the above formulations on several subjects, it was discovered that there is a slight range in clinical effect depending on the concentration of aceclidine, where 1.35% - 1.55% w/v aceclidine is preferred, but for which 1.35% w/v and 1.45% w/v confer the desired benefits on most subjects.

[8] = tested on: patients; conditions: cited from earlier work
[9] = tested on: subject; conditions: in vivo
Source text: The subject independently instilled 2 drops of the above compositions in each eye and the excess wiped from lids and lashes.
Stinging and Redness are based on a scale of 0 to 4 with 0 being none and 4 being the most severe.

[10] = aceclidine 1.1% composition with 0.125% w/v tropicamide
[11] = aceclidine 1.5% composition, object at 15 inches

`CC(=O)OC1CN2CCC1CC2` (racemic) [aceclidine] gave an Aceclidine remaining ([1]; 4° C., 1 month) of 93%, an Aceclidine remaining ([1]; 4° C., 2 months) of 92% and an Aceclidine remaining ([1]; 4° C., 3 months) of 88%. For the same molecule, the Aceclidine remaining ([1]; 4° C., Initial) was 100%, the Aceclidine remaining ([1]; 25° C., 1 month) was 92% and the Aceclidine remaining ([1]; 25° C., 2 months) was 75%. The Aceclidine remaining ([1]; 25° C., 3 months) was 50%, the Aceclidine remaining ([1]; 25° C., Initial) was 100% and the Distance vision ([2]; 1.55% w/v aceclidine in saline) was “without any effect on the baseline distance vision”. The Near vision ([2]; 1.55% w/v aceclidine in saline) was 20.40, the “Time period of near vision improvement” value ([2]; 1.55% w/v aceclidine in saline) was 6 h and the Near vision ([2]; aceclidine in carrier: 5.5% HPβCD, 0.75% CMC, 0.25% NaCl, 0.01% BAK) was under 20.20. The Near vision ([2]; aceclidine in the carrier with 0.042% w/v tropicamide) was 20.15, the “Effect” value [3, 10] was 12.00 h and 7.00 h and the “Post Gtt 15″ L Post Dist” value [3, 10] was 20.15 and 20.20. The “Post Gtt 15″ L Post Near” value [3, 10] was 20.15 and 20.25, the “Post Gtt 15″ R Post Dist” value [3, 10] was 20.15 and 20.20 and the “Post Gtt 15″ R Post Near” value [3, 10] was 20.20 and 20.25. For the same molecule, the “Effect” value ([3]; aceclidine 1.5% composition) was 9.00 h and 8.00 h, the “Post Gtt 15″ L Post Dist” value ([3]; aceclidine 1.5% composition) was 20.20 and 20.25 and 20.30 and the “Post Gtt 15″ L Post Near” value [3, 11] was 20.15 and 20.20 and 20.30. The “Post Gtt 15″ R Post Near” value [3, 11] was 20.15 and 20.25 and 20.20, the “Post Gtt 15″ R Post Dist” value ([3]; aceclidine 1.5% with 5.5% HPβCD, 0.75% CMC, 0.25% NaCl, 0.01% BAK) was 20.20 and 20.25 and the “LogMAR score at 1-meter distance after instillation” value ([4]; 1.75% aceclidine in saline, one drop each eye) was -0.12 LogMAR. For the same molecule, the “LogMAR score at 45 centimeters distance after instillation” value ([4]; 1.75% aceclidine in saline, one drop each eye, 0.50 prior to instillation) was 0.22 LogMAR, the “Time at which noticeable degradation in reading distance acuity began” value ([4]; post instillation) was 4 h and the “Time improved reading distance acuity was maintained” value ([4]; post instillation) was 3.5 h. For the same molecule, the “Duration of miosis / efficacy for near depth of field improvement” value ([5]; aceclidine in a preferred vehicle, pupil sizes of 1.5 to 2.0 mm) was 6 to 7 h, the Duration of miosis ([5]; with the addition of brimonidine at 0.07% to 0.08%) was 10 to 12 h and the Near vision improvement [6] was “up to 3 lines of vision acuity”. The Comfort ([7]; 1.35% w/v aceclidine) was “very high”, the “Depth of Focus distance” value ([7]; 1.35% w/v aceclidine) was “excellent” and the “Depth of Focus near” value ([7]; 1.35% w/v aceclidine) was “excellent”. The Duration of stinging ([7]; 1.35% w/v aceclidine preferred embodiment) was 2 to 5 s and the “Stinging on topical instillation” value ([7]; 1.35% w/v aceclidine preferred embodiment, score out of 4.0) was 0.25.

For `Brc1c(NC2=NCCN2)ccc2nccnc12` [brimonidine], the “Treated subjects with tachyphylaxis of pupil modulation” value ([8]; brimonidine 0.20% w/v topically for night vision, within four weeks of use) is given as about 100% and the “Patients with rebound redness” value ([8]; brimonidine 0.20% w/v twice daily) is given as 25%.

In the case of Polysorbate 80, the “Redness 1 hr” value [9] is reported as 0.5 and the Stinging [9] is reported as 0.25.

For poloxamer 407, the “Redness 1 hr” value [9] was 1 and the Stinging [9] was 0.5.
